What follows are molecules tested on Influenza virus A/PR/8/34 (H1N1) (assay: in vitro cytopathic effect (CPE) assay in MDCK cells). Details: H1N1|PR/8, 120 h; MDCK cells infected with Influenza virus A/PR/8/34 (H1N1), 5 days, cell viability by CCK8.
Assay type: cell-based
`O=C1c2c(O)c(=O)ccn2N(C2c3cccc(F)c3CCc3c(F)cccc32)[C@@H]2[C@H]3C[C@@H]4CC[C@@]3(CCN12)O4` [Compound 9, (2S,4aS,14aR,14bR)-14-(1,9-difluoro-10,11-dihydro-5H-dibenzo[a,d][7]annulen-5-yl)-9-hydroxy-1,3,4,5,6,14,14a,14b-octahydro-2H-2,4a-epoxypyrido[1′,2′:1,6][1,2,4]triazino[3,4-a]-isoquinoline-8,10-dione] gave an EC50 of 20 nM. For `O=C1c2c(O)c(=O)ccn2N([C@H]2c3ccccc3SCc3cccc(F)c32)[C@@H]2[C@H]3C[C@@H]4CC[C@@]3(CCN12)O4` [Compound 4, (2S,4aS,14aR,14bR)-14-((R)-10-fluoro-6,11-dihydro-dibenzo[b,e]thiepin-11-yl)-9-hydroxy-1,3,4,5,6,14,14a,14b-octahydro-2H-2,4a-epoxypyrido[1′,2′:1,6][1,2,4]triazino[3,4-a]-isoquinoline-8,10-dione], the EC50 was 52 nM. Molecule `O=C1c2c(O)c(=O)ccn2N([C@@H]2c3ccccc3SCc3cccc(F)c32)[C@@H]2[C@H]3C[C@@H]4CC[C@@]3(CCN12)O4` [Compound 3, (2S,4aS,14aR,14bR)-14-((S)-10-fluoro-6,11-dihydro-dibenzo[b,e]thiepin-11-yl)-9-hydroxy-1,3,4,5,6,14,14a,14b-octahydro-2H-2,4a-epoxypyrido[1′,2′:1,6][1,2,4]triazino[3,4-a]-isoquinoline-8,10-dione] has an EC50 of 2.1 nM. In the case of `O=C1c2c(O)c(=O)ccn2N(C2c3ccc(F)cc3CCc3cc(F)ccc32)[C@@H]2[C@H]3C[C@@H]4CC[C@@]3(CCN12)O4` [Compound 10, (2S,4aS,14aR,14bR)-14-(2,8-difluoro-10,11-dihydro-5H-dibenzo[a,d][7]annulen-5-yl)-9-hydroxy-1,3,4,5,6,14,14a,14b-octahydro-2H-2,4a-epoxypyrido[1′,2′:1,6][1,2,4]triazino[3,4-a]-isoquinoline-8,10-dione], the EC50 is reported as 3.6 nM.

— patent US20220177487A1, “FUSED POLYCYCLIC PYRIDONE COMPOUNDS AS INFLUENZA VIRUS REPLICATION INHIBITORS” (NIKANG THERAPEUTICS, INC., priority 2019, published 2022)
